How the values were obtained:
female Wistar rats = experiment: Open field test in rats (locomotor activity); format: in vivo, rat; set-up: total distance traveled: unit not given here
Procedure: Naïve female Wistar rats (weighing 180–200 g) were used in the study. The animals were housed in groups of three to four in standard Makrolon cages (37 cm × 21 cm × 15 cm) under strictly controlled laboratory conditions (ambient temperature 21–24 °C, relative humidity 45–65%) with a 12/12 h light–dark regime (light on at 6:00 a.m. and off at 6:00 p.m.). Animals had unrestricted access to tap water and food (typical pellets). Prior the experiment the animals were randomly appointed to the group. The behavioral studies were accomplished between 8:00 a.m. and 5:00 p.m. with the researcher blind to the study. The experiments were performed according to protocols approved by the Local Ethical Committee in Krakow (Approval Number 147/2018), Poland. Housing and experimental procedures were conducted under the European Union Directive of September 22, 2010 (2010/63/EU) and Polish legislation regarding animal studies. All efforts were made to minimize animal suffering and the number of animals used in the study.
Vortioxetine (Sigma, Germany) and the tested compounds (16 and 6) were dissolved in 10% cyclodextrin and administered ip 30 min before the test or during 14 consecutive days, with the last injection 60 min before the test. 10% cyclodextrin was administrated to control group.
A modified forced swim test was carried out according to Detke et al.[50],[51] First, the animals were individually placed inside Plexiglas cylinders, which were 40 cm high and 18 cm in diameter, filled with water at a temperature of 23–25 °C for 15 min. Afterward, the rats were transferred to a Plexiglas box and kept under a 60 W bulb for 30 min to dry. The day after, exactly 24 h later, the rats were once again placed in the cylinder, and their duration of immobility, swimming, and climbing was observed and recorded during a 5 min. The swimming behavior involved energetic movements such as horizontal swimming around the cylinder, while climbing activity referred to upward movements of the forepaws along the swim chamber’s side. Immobility was recorded when the rat only made necessary movements to keep its head above the water. For each test, a fresh water was provided. Open field test in rats: The test was conducted as previously reported by our research group.[52] The test was performed in a darkened room employing the Motor Monitor System (Campden Instruments, Ltd., U.K.). The system was equipped with two SmartFrame Open Field stations, each measuring 40 cm × 40 cm × 38 cm and consisting of 16 × 16 beams. These stations were placed inside sound-attenuating chambers and connected to a PC software using […]. The animals, belonging to either the vehicle-injected or drug-injected group, were individually positioned at the center of the station. The Motor Monitor System, which was automated, recorded the animal’s ambulation in both the X and Y axes, as well as the number of rearing and peeping episodes. Additionally, the total distance traveled by each animal during the 5 min test period was also recorded. Statistical analysis: Results are presented as the mean ± SEM values. They were estimated using one-way analysis of variance (ANOVA), followed by Newman–Keuls post hoc or unpaired two-tailed Student t test. Statistical significance was considered when p < 0.05 for differences between groups.

[1] = Parallel artificial membrane permeability assay (PAMPA); format: in vitro ADME; conditions: tested at 10^–5 M, PAMPA Plate System Gentest
Procedure: To estimate the passive transport through cell membranes, we used specialized PAMPA Plate System Gentest acquired from Corning (Tewksbury, MA, USA). The assay was performed as described in the manufacturer’s protocol. The quantitative measurements of tested molecules in apical and basolateral wells were conducted using LC/MS (Waters ACQUITY TQD system with the TQ detector, Milford, USA) and a specific internal standard. The Pe permeability coefficient was calculated rendering the formulas described previously[47],[47] and compared to the reference compound sulpiride.

[2] = acute treatment, dose 3, ip 30 min prior
[3] = chronic treatment, dose 3, ip 14 days

Cc1c(OCc2ccccc2)cccc1N1CCN(CCOC(=O)CCCN)CC1.Cl.Cl [Compound 16, 1-(2-((4-Ammoniobutanoyl)oxy)ethyl)-4-(3-(benzyloxy)-2-methylphenyl)piperazin-1-ium Dichloride]
X ambulation (female Wistar rats; [2]): 221.3
Y ambulation (female Wistar rats; [2]): 213.7
rearing (female Wistar rats; [2]): 34.5
total distance traveled (female Wistar rats; [2]): 506.3
influence on spontaneous locomotor activity (female Wistar rats; acute, 3 mg/kg): did not observe any influence
X ambulation (female Wistar rats; [3]): 260.4
Y ambulation (female Wistar rats; [3]): 255.3
rearing (female Wistar rats; [3]): 52.2
total distance traveled (female Wistar rats; [3]): 2575
changes in spontaneous locomotor activity (female Wistar rats; subchronic, 3 mg/kg): did not result in any significant changes
Papp [1]: 6.24 ×10⁻⁶ cm/s

Source: PMC10119930, “Dual Molecules Targeting 5-HT6 and GABA-A Receptors as a New Approach to Combat Depression Associated with Neuroinflammation” (ACS Chemical Neuroscience, 2023)
